From patent publication US20140058103A1, “Inhibitors of PI3K-Delta and Methods of Their Use and Manufacture” (Exelixis, Inc., priority 2010, published 2014)

Each compound was assayed against PI3K delta (Homo sapiens, UniProt O00329) (assay: Luciferase-coupled chemiluminescence kinase assay (ATP consumption, KinaseGlo)).
Format: biochemical
Experimental: Kinase activity and compound inhibition were investigated using one or more of the assay formats described below. The ATP concentrations used in the various assays were approximately equal to or less than the KM for each of the respective kinases. Dose-response experiments were performed using an intra-plate dilution scheme with 10 different inhibitor concentrations in a 384-well microtiter plate. IC50 values were calculated by nonlinear regression analysis using the four-parameter equation listed below:
Y=min+(max−min)/(1+(X/IC50)^N) Equation 1
Typically N should approximate unity. Curve fitting was performed using XLFit or ActivityBase.
Kinase activity is measured as the percent of ATP consumed following the kinase reaction using luciferase-luciferin-coupled chemiluminescence. […] Kinase reactions were initiated by combining test compounds, kinase, and ATP in a 20 μL volume (6 μL volume for 1536-well plate). The reaction mixture was incubated at ambient temperature for 2 h. Following the kinase reaction, a 20 μL (or […] for 1536-well plate) aliquot of KinaseGlo (Promega) was added and the chemiluminescence signal measured using an EnVision plate reader (Perkin Elmer).

Chain of PI3K delta (O00329 whole entry): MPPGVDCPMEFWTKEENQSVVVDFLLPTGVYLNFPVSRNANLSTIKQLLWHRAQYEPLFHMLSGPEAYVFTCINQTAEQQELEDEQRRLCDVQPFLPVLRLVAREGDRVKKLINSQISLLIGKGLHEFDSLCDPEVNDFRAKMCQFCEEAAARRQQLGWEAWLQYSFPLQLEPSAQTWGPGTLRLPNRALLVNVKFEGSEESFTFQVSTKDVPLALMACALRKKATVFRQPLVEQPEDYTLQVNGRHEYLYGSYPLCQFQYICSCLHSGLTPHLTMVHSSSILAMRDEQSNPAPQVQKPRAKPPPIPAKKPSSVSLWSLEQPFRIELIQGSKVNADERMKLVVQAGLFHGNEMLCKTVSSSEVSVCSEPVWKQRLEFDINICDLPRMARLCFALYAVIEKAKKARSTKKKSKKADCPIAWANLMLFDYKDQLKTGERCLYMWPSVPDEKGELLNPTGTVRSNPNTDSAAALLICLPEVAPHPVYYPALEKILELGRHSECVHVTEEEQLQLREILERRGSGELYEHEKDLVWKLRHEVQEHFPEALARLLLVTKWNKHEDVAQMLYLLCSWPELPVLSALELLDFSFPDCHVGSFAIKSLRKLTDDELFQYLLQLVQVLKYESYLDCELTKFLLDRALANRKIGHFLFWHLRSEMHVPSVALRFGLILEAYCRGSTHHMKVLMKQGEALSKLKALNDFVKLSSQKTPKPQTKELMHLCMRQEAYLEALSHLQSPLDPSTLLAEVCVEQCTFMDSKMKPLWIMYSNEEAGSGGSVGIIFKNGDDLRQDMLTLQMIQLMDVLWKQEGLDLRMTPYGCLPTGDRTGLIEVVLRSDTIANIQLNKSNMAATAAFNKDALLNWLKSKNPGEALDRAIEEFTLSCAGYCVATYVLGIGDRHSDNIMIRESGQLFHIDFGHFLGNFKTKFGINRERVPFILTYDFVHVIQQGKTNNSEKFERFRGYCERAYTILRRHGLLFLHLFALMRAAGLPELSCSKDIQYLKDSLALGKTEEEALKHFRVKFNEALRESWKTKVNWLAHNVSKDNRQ
Chain of PI3K delta (P27986 whole entry partner): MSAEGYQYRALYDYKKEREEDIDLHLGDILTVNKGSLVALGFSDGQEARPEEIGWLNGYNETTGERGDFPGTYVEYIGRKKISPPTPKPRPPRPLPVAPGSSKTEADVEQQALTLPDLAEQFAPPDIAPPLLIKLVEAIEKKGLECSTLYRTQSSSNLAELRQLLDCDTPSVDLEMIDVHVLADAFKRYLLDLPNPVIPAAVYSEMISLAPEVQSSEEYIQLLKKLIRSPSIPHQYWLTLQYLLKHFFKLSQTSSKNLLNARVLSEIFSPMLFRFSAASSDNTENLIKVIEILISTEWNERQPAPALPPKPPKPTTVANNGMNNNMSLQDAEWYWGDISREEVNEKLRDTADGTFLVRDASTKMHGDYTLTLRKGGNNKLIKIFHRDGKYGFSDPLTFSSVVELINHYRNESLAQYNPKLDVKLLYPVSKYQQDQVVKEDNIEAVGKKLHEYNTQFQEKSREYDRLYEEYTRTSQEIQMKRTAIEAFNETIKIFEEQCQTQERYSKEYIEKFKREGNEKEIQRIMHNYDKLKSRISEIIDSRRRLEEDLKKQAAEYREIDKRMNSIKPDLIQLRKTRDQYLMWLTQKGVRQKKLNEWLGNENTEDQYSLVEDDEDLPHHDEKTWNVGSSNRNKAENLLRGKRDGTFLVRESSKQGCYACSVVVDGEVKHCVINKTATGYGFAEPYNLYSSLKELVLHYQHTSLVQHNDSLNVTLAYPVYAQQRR

SMILES | IC50 [µM]
Cn1c(C(=O)N2CCCC2)nc2c(N3CCC4(CC3)C(=O)Nc3ccccc34)ncnc21 [Compound 35, 1′-[9-methyl-8-(pyrrolidin-1-ylcarbonyl)-9H-purin-6-yl]spiro[indole-3,4′-piperidin]-2(1H)-one] | 0.5 to 1.5
CCCCCCNC(=O)c1nc2c(N3CCC4(CC3)C(=O)Nc3ccccc34)ncnc2n1C [Compound 37, N-hexyl-9-methyl-6-(2-oxo-1,2-dihydro-1′H-spiro[indole-3,4′-piperidin]-1′-yl)-9H-purine-8-carboxamide] | 0.5 to 1.5
CC(C)N(C)C(=O)c1nc2c(N3CCC4(CC3)C(=O)Nc3ccccc34)ncnc2n1C [Compound 38, N,9-dimethyl-N-(1-methylethyl)-6-(2-oxo-1,2-dihydro-1′H-spiro[indole-3,4′-piperidin]-1′-yl)-9H-purine-8-carboxamide] | 0.5 to 1.5
CN(CCC#N)C(=O)c1nc2c(N3CCC4(CC3)C(=O)Nc3ccccc34)ncnc2n1C [Compound 39, N-(2-cyanoethyl)-N,9-dimethyl-6-(2-oxo-1,2-dihydro-1′H-spiro[indole-3,4′-piperidin]-1′-yl)-9H-purine-8-carboxamide] | 0.5 to 1.5
Cn1c(C(=O)N2CC(O)C2)nc2c(N3CCC4(CC3)C(=O)Nc3ccccc34)ncnc21 [Compound 41, 1′-{8-[(3-hydroxyazetidin-1-yl)carbonyl]-9-methyl-9H-purin-6-yl}spiro[indole-3,4′-piperidin]-2(1H)-one] | 0.05 to 0.25
Cn1c(C(=O)NCCCCO)nc2c(N3CCC(n4c(=O)[nH]c5ccccc54)CC3)ncnc21 [Compound 42, N-(4-hydroxybutyl)-9-methyl-6-[4-(2-oxo-2,3-dihydro-1H-benzimidazol-1-yl)piperidin-1-yl]-9H-purine-8-carboxamide] | 0.05 to 0.25
Cn1c(C(=O)NC2CC2)nc2c(N3CCC(n4c(=O)[nH]c5ccccc54)CC3)ncnc21 [Compound 43, N-cyclopropyl-9-methyl-6-[4-(2-oxo-2,3-dihydro-1H-benzimidazol-1-yl)piperidin-1-yl]-9H-purine-8-carboxamide] | 0.05 to 0.25
Cn1c(C(=O)NC2CCC2)nc2c(N3CCC(n4c(=O)[nH]c5ccccc54)CC3)ncnc21 [Compound 44, N-cyclobutyl-9-methyl-6-[4-(2-oxo-2,3-dihydro-1H-benzimidazol-1-yl)piperidin-1-yl]-9H-purine-8-carboxamide] | 0.05 to 0.25
Cn1c(C(=O)NCc2ccco2)nc2c(N3CCC(n4c(=O)[nH]c5ccccc54)CC3)ncnc21 [Compound 46, N-(furan-2-ylmethyl)-9-methyl-6-[4-(2-oxo-2,3-dihydro-1H-benzimidazol-1-yl)piperidin-1-yl]-9H-purine-8-carboxamide] | 0.05 to 0.25

Results, then the compound that gave them:

IC50 [µM] | SMILES
< 0.05 | CC(C)CNC(=O)c1nc2c(N3CCC4(CC3)C(=O)Nc3ccccc34)ncnc2n1C [Compound 34, 9-methyl-N-(2-methylpropyl)-6-(2-oxo-1,2-dihydro-1′H-spiro[indole-3,4′-piperidin]-1′-yl)-9H-purine-8-carboxamide]
0.05 to 0.25 | CCCNC(=O)c1nc2c(N3CCC4(CC3)C(=O)Nc3ccccc34)ncnc2n1C [Compound 36, 9-methyl-6-(2-oxo-1,2-dihydro-1′H-spiro[indole-3,4′-piperidin]-1′-yl)-N-propyl-9H-purine-8-carboxamide]
0.05 to 0.25 | CC(C)CCNC(=O)c1nc2c(N3CCC4(CC3)C(=O)Nc3ccccc34)ncnc2n1C [Compound 40, 9-methyl-N-(3-methylbutyl)-6-(2-oxo-1,2-dihydro-1′H-spiro[indole-3,4′-piperidin]-1′-yl)-9H-purine-8-carboxamide]
< 0.05 | CCCCNC(=O)c1nc2c(N3CCC(n4c(=O)[nH]c5ccccc54)CC3)ncnc2n1C [Compound 45, N-butyl-9-methyl-6-[4-(2-oxo-2,3-dihydro-1H-benzimidazol-1-yl)piperidin-1-yl]-9H-purine-8-carboxamide]
